Measurements from US7169816B2, “4-bromo or 4-iodo phenylamino benzhydroxamic acid derivatives and their use as MEK inhibitors” (Warner-Lambert Company, priority 1997, dated 2007).
pIC50: −log10 of the molar value. Like-named read-outs stand apart in the source and are kept apart here. Blank lines part the entries; values can stand above or below the compound they belong to.

Tests used:
[1] = target: p45MEK (GST-MEK) (Homo sapiens, UniProt Q02750); experiment: Cascade assay for inhibitors of the MAP kinase pathway (in vitro); format: biochemical
Procedure: Incorporation of ^32P into myelin basic protein (MBP) was assayed in the presence of a glutathione S-transferase fusion protein containing p44MAP kinase (GST-MAPK) and a glutathione S-transferase fusion protein containing p45MEK (GST-MEK). The assay solution contained 20 mM HEPES, pH 7.4, 10 mM MgCl2, 1 mM MnCl2, 1 mM EGTA, 50 μM [γ-^32P]ATP, 10 μg GST-MEK, 0.5 μg GST-MAPK and 40 μg MBP in a final volume of 100 μL. […] Compounds were assessed at 10 μM for ability to inhibit incorporation of ^32P.
To ascertain whether compounds were inhibiting GST-MEK or GST MAPK, two additional protocols were employed. In the first protocol, compounds were added to tubes containing GST-MEK, followed by addition of GST-MAPK, MBP and [γ-^32P]ATP. In the second protocol, compounds were added to tubes containing both GST-MEK and GST-MAPK, followed by MBP and [γ-^32P]ATP.

[2] = tested on: activation of MAP kinase in whole cells; experiment: Whole cell MAP kinase assay (in vivo, cell culture); format: cell-based
Procedure: To determine if compounds were able to block activation of MAP kinase in whole cells, the following protocol was used: Cells were plated in multi-well plates and grown to confluence. Cells were then serum-deprived overnight. Cells were exposed to the desired concentrations of compound or vehicle (DMSO) for 30 minutes, followed by addition of a growth factor, eg, PDGF (100 ng/mL). After a 5-minute treatment with the growth factor, cells were washed with PBS, then lysed in a buffer consisting of 70 mM NaCl, 10 mM HEPES (pH 7.4), 50 mM glycerol phosphate, and 1% Triton X-100. Lysates were clarified by centrifugation at 13,000×g for 10 minutes. Five micrograms of the resulting supernatants were incubated with 10 μg microtubule associated protein-2 (Map2) for 15 minutes at 30° C. in a final volume of 25 μL containing 50 mM Tris (pH 7.4), 10 mM MgCl2, 2 mM EGTA and 30 μM [γ-^32P]ATP. Reactions were terminated by addition of Laemmli sample buffer. Phosphorylated Map2 was resolved on 7.5% acrylamide gels and incorporated radioactivity determined by autoradiography and subsequent excision of the bands followed by scintillation counting.

[3] = tested on: murine colon tumor, C26/clone 10; experiment: Murine colon tumor C26/clone 10 implanted subcutaneously in mice; format: in vivo, Male CD2F1 mice; details: for Change in Body Weight / Non-Specific Deaths: Days 1 through 14
Procedure: Male CD2F1 mice (NCI: Charles River, Kingston) were implanted subcutaneously with tumor fragments (approximately 30 mg) in the region of the right axilla on Day 0. […] The vehicle for the test compound, and for control animals, was 10% EtOH/10% Cremophor-EL (Sigma)/80% H2O, pH 5.0. Tumor volumes were recorded three times per week by measuring the length and width of the individual tumors and calculating mass in milligrams according to the formula (a×b^2)/2, where a and b are the length and width of the tumor. Percent treated/control (T/C) was calculated based on the ratio of the median tumor volume of the treated tumors compared with the median tumor volume of control animals on specified measurement days.

Compound: O=C(NOCC1CC1)c1ccc(F)c(F)c1Nc1ccc(I)cc1Cl [Example 95, 3,4-Difluoro-2-(2-chloro-4-iodo-phenylamino)-N-cyclopropylmethoxy-benzamide]
% Inhibition ([3]; IP, 48 mg/kg/day, Day 15): 59%
Change in Body Weight ([3]; IP, 48 mg/kg/day): +3 grams
Non-Specific Deaths ([3]; IP, 48 mg/kg/day): 0/6
% Inhibition ([3]; IP, 77 mg/kg/day, Day 15): 98%
Change in Body Weight ([3]; IP, 77 mg/kg/day): +2 grams
Non-Specific Deaths ([3]; IP, 77 mg/kg/day): 2/5
% Inhibition ([3]; IP, 124 mg/kg/day, Day 15): 96%
Change in Body Weight ([3]; IP, 124 mg/kg/day): +3 grams
Non-Specific Deaths ([3]; IP, 124 mg/kg/day): 1/6
% Inhibition ([3]; IP, 200 mg/kg/day, Day 15): 100%
Change in Body Weight ([3]; IP, 200 mg/kg/day): +2 grams
Non-Specific Deaths ([3]; IP, 200 mg/kg/day): 1/6
% Inhibition ([3]; PO, 71 mg/kg/day, Day 17): 64%
Change in Body Weight ([3]; PO, 71 mg/kg/day): +2 grams
Non-Specific Deaths ([3]; PO, 71 mg/kg/day): 0/6
% Inhibition ([3]; PO, 115 mg/kg/day, Day 17): 79%
Change in Body Weight ([3]; PO, 115 mg/kg/day): +2 grams
Non-Specific Deaths ([3]; PO, 115 mg/kg/day): 1/6
% Inhibition ([3]; PO, 186 mg/kg/day, Day 17): 75%
Change in Body Weight ([3]; PO, 186 mg/kg/day): +2 grams
Non-Specific Deaths ([3]; PO, 186 mg/kg/day): 0/6
% Inhibition ([3]; PO, 300 mg/kg/day, Day 17): 83%
Change in Body Weight ([3]; PO, 300 mg/kg/day): +2 grams
Non-Specific Deaths ([3]; PO, 300 mg/kg/day): 0/6

Compound: 2-(4-bromo-2-methyl-phenylamino)-4-fluoro-N-hydroxy-benzamide [Example 3]
pIC50 [1]: 7.14
pIC50 ([2]; cell culture): 5.52

Compound: Cc1cc(I)ccc1Nc1ccc(Cl)cc1C(=O)NOC1CCCCO1 (stereo not shown) [Example 6, 5-Chloro-2-(4-iodo-2-methyl-phenylamino)-N-(terahydropyran-2-yloxy)benzamide]
pIC50 [1]: 6.46

Compound: CCCONC(=O)c1ccc(F)c(F)c1Nc1ccc(Br)cc1C [Example 44, 2-(4-Bromo-2-methyl-phenylamino)-3,4-difluoro-N-propoxy-benzamide]
pIC50 [1]: 6.32

Compound: Cc1cc(I)ccc1Nc1cc(F)ccc1C(=O)NOCCOc1ccccc1 [Example 59, 4-Fluoro-2-(4-iodo-2-methyl-phenylamino)-N-(2-phenoxy-ethoxy)-benzamide]
pIC50 [1]: 6.59

Compound: CC(C#Cc1ccccc1)=CCONC(=O)c1ccc(F)c(F)c1Nc1ccc(Br)cc1C [Example 39, 2-(4-Bromo-2-methyl-phenylamino)-3,4-difluoro-N-(3-methyl-5-phenyl-pent-2-en-4-ynyloxy)-benzamide]
pIC50 [1]: 6.83

Compound: C#CC(C)ONC(=O)c1ccc(F)c(F)c1Nc1ccc(I)cc1C (stereo not shown) [Example 27, 3,4-Difluoro-2-(4-iodo-2-methyl-phenylamino)-N-(1-methyl-prop-2-ynyloxy)-benzamide]
pIC50 [1]: 7.59

The remaining lines, values ahead:

pIC50 [1]: 9.00
pIC50 [2]: 8.30
Compound: Cc1cc(I)ccc1Nc1c(C(=O)NO)ccc(F)c1F [Example 84, 3,4-Difluoro-N-hydroxy-2-(4-iodo-2-methyl-phenylamino)-benzamide]

pIC50 [1]: 8.10
pIC50 [2]: < 6.00
Compound: Cc1cc(I)ccc1Nc1c(C(=O)NOCC2CCCC2)cc(Br)c(F)c1F [Example 101, 5-Bromo-N-cyclopentylmethoxy-3,4-difluoro-2-(4-iodo-2-methyl-phenylamino)-benzamide]

pIC50 [1]: 8.30
pIC50 [2]: 6.52
Compound: O=C(NOCC1CCC1)c1ccc(F)c(F)c1Nc1ccc(I)cc1Cl [Example 89, 3,4-Difluoro-2-(2-chloro-4-iodo-phenylamino)-N-cyclobutylmethoxy-benzamide]

pIC50 [1]: 7.59
pIC50 [2]: < 6.00
Compound: Cc1cc(I)ccc1Nc1c(C(=O)NOCC2CCCCC2)cc(Br)c(F)c1F [Example 100, 5-Bromo-N-cyclohexylmethoxy-3,4-difluoro-2-(4-iodo-2-methyl-phenylamino)-benzamide]

pIC50 [1]: 8.00
pIC50 [2]: 7.30
Compound: O=C(NO)c1cc(Br)c(F)c(F)c1Nc1ccc(I)cc1Cl [Example 93, 5-Bromo-2-(2-chloro-4-iodo-phenylamino)-3,4-difluoro-N-hydroxy-benzamide]

pIC50 [1]: 6.74
Compound: Cc1cc(Br)ccc1Nc1c(C(=O)NOCC2CC2)ccc(F)c1F [Example 57, 2-(4-Bromo-2-methyl-phenylamino)-N-cyclopropylmethoxy-3,4-difluoro-benzamide]

pIC50 [1]: > 8.00
Compound: O=C(NOCC1CC1)c1cc(Br)c(F)c(F)c1Nc1ccc(I)cc1Cl [Example 96, 5-Bromo-2-(2-chloro-4-iodo-phenylamino)-N-cyclopropylmethoxy-3,4-difluoro-benzamide]
